Measured values published in patent publication US10919916B2, “Boron-containing small molecules” (Bill & Melinda Gates Foundation, priority 2016, dated 2021).
In brackets after ≈: the same amount, converted by molar mass. Like-named read-outs stand apart in the source and are kept apart here. Each block holds one molecule with its values, some of them ahead of it.

How the values were obtained:
[1] = system: Staphylococcus aureus, MRSA (ATCC 33591); assay: Antibacterial MIC assay (microbroth dilution, CLSI); format: cell-based; conditions: read-out: MIC Staphylococcus aureus, MRSA (ATCC 33591)
Method in brief: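 Compound 2-fold dilution series tested against 5×10^5 CFU/mL bacteria prepared from 0.5 McFarland saline suspensions of overnight colonies. Medium was cation-adjusted Mueller-Hinton broth, supplemented with 3% lysed horse blood for the fastidious pneumococcus. Protocol followed CLSI M07-A10 and M100-S25.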

[2] = system: Streptococcus pneumoniae (ATCC 49619); assay: as above; format: cell-based
Method in brief: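 S. pneumoniae at 5×10^5 CFU/mL (from 0.5 McFarland saline suspension) was tested against 2-fold serial compound dilutions in cation-adjusted Mueller-Hinton broth plus 3% lysed horse blood, per CLSI M07-A10/M100-S25 microdilution guidelines.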

[3] = ATCC49619, read-out: MIC Streptococcus pneumoniae (ATCC 49619)
[4] = microbroth dilution, cation-adjusted Mueller-Hinton broth, 35° C. for 16-20 hours
[5] = ATCC49619, microbroth dilution, 3% lysed horse blood, 35° C. for 16-20 hours, read-out: MIC Streptococcus pneumoniae (ATCC 49619)

Compound: C=C[C@]1(C)C[C@@H](OC(=O)CNCc2ccc3c(c2)B(O)OC3(C)C)[C@]2(C)[C@H](C)CC[C@]3(CCC(=O)[C@H]32)[C@@H](C)[C@@H]1O [Compound 60, (3aR,4R,5R,7S,8S,9R,9aS,12R)-8-hydroxy-4,7,9,12-tetramethyl-3-oxo-7-vinyldecahydro-4,9a-propanocyclopenta[8]annulen-5-yl ((1-hydroxy-3,3-dimethyl-1,3-dihydrobenzo[c][1,2]oxaborol-6-yl)methyl)glycinate]
MIC [1]: 0.5 to 2 mg/L (≈ 0.907 to 3.63 µM) | MIC [2, 3]: 4 to 32 mg/L (≈ 7.25 to 58 µM)

MIC [1, 4]: < 0.25 mg/L | MIC [2, 5]: 0.5 to 2 mg/L (≈ 0.962 to 3.85 µM)
Compound: C=C[C@]1(C)C[C@@H](OC(=O)COc2ccc3c(c2)NB(C)C=C3)[C@]2(C)[C@H](C)CC[C@]3(CCC(=O)[C@H]32)[C@@H](C)[C@@H]1O [Compound 104, (3aR,4R,5R,7S,8S,9R,9aS,12R)-8-hydroxy-4,7,9,12-tetramethyl-3-oxo-7-vinyldecahydro-4,9a-propanocyclopenta[8]annulen-5-yl 2-((2-methyl-1,2-dihydrobenzo[e][1,2]azaborinin-7-yl)oxy)acetate]

Compound: C=C[C@]1(C)C[C@@H](OC(=O)COc2ccc3c(c2F)B(O)ON=C3)[C@]2(C)[C@H](C)CC[C@]3(CCC(=O)[C@H]32)[C@@H](C)[C@@H]1O [Compound 97, (3aR,4R,5R,7S,8S,9R,9aS,12R)-8-hydroxy-4,7,9,12-tetramethyl-3-oxo-7-vinyldecahydro-4,9a-propanocyclopenta[8]annulen-5-yl 2-((8-fluoro-1-hydroxy-1H-benzo[d][1,2,6]oxazaborinin-7-yl)oxy)acetate]
MIC [1]: < 0.25 mg/L | MIC [2, 3]: 0.5 to 2 mg/L (≈ 0.923 to 3.69 µM)

MIC [1, 4]: 0.5 to 2 mg/L | MIC [2, 5]: 0.5 to 2 mg/L
Compound: C=C[C@]1(C)C[C@@H](OC(=O)COc2ccc3c(c2F)B(O)OC3CN)[C@]2(C)[C@H](C)CC[C@]3(CCC(=O)[C@H]32)[C@@H](C)[C@@H]1O.Cl (stereo partly drawn) [Compound 29, (3aR,4R,5R,7S,8S,9R,9aS,12R)-8-hydroxy-4,7,9,12-tetramethyl-3-oxo-7-vinyldecahydro-4,9a-propanocyclopenta[8]annulen-5-yl 2-((3-(aminomethyl)-7-fluoro-1-hydroxy-1,3-dihydrobenzo[c][1,2]oxaborol-6-yl)oxy)acetate Hydrochloride]

Compound: C=C[C@]1(C)C[C@@H](OC(=O)COc2ccc3c(c2)B(O)N(S(C)(=O)=O)N=C3)[C@]2(C)[C@H](C)CC[C@]3(CCC(=O)[C@H]32)[C@@H](C)[C@@H]1O [Compound 75, (3aR,4R,5R,7S,8S,9R,9aS,12R)-8-hydroxy-4,7,9,12-tetramethyl-3-oxo-7-vinyldecahydro-4,9a-propanocyclopenta[8]annulen-5-yl 2-((1-hydroxy-2-(methylsulfonyl)-1,2-dihydrobenzo[d][1,2,3]diazaborinin-7-yl)oxy)acetate]
MIC [1]: < 0.25 mg/L | MIC [2, 3]: 0.5 to 2 mg/L (≈ 0.833 to 3.33 µM)

Compound: C=C[C@]1(C)C[C@@H](OC(=O)CNc2cc(CN)c3c(c2)B(O)OC3)[C@]2(C)[C@H](C)CC[C@]3(CCC(=O)[C@H]32)[C@@H](C)[C@@H]1O [Compound 50, (3aR,4R,5R,7S,8S,9R,9aS,12R)-8-hydroxy-4,7,9,12-tetramethyl-3-oxo-7-vinyldecahydro-4,9a-propanocyclopenta[8]annulen-5-yl (4-(aminomethyl)-1-hydroxy-1,3-dihydrobenzo[c][1,2]oxaborol-6-yl)glycinate]
MIC [1]: 0.5 to 2 mg/L (≈ 0.929 to 3.71 µM) | MIC [2, 3]: < 0.25 mg/L

Compound: C=C[C@]1(C)C[C@@H](OC(=O)COC(=O)Nc2ccc3c(c2F)B(O)OC3)[C@]2(C)[C@H](C)CC[C@]3(CCC(=O)[C@H]32)[C@@H](C)[C@@H]1O [Compound 55, (3aR,4R,5R,7S,8S,9R,9aS,12R)-8-hydroxy-4,7,9,12-tetramethyl-3-oxo-7-vinyldecahydro-4,9a-propanocyclopenta[8]annulen-5-yl 2-(((7-fluoro-1-hydroxy-1,3-dihydrobenzo[c][1,2]oxaborol-6-yl)carbamoyl)oxy)acetate]
MIC [1]: 0.5 to 2 mg/L (≈ 0.875 to 3.5 µM) | MIC [2, 3]: 0.5 to 2 mg/L (≈ 0.875 to 3.5 µM)

Compound: C=C[C@]1(C)C[C@@H](OC(=O)CNc2ccc3c(c2CN)B(O)OC3)[C@]2(C)[C@H](C)CC[C@]3(CCC(=O)[C@H]32)[C@@H](C)[C@@H]1O [Compound 49, (3aR,4R,5R,7S,8S,9R,9aS,12R)-8-hydroxy-4,7,9,12-tetramethyl-3-oxo-7-vinyldecahydro-4,9a-propanocyclopenta[8]annulen-5-yl (7-(aminomethyl)-1-hydroxy-1,3-dihydrobenzo[c][1,2]oxaborol-6-yl)glycinate]
MIC [1]: 0.5 to 2 mg/L (≈ 0.929 to 3.71 µM) | MIC [2, 3]: 0.5 to 2 mg/L (≈ 0.929 to 3.71 µM)

Compound: C=C[C@]1(C)C[C@@H](OC(=O)CS(=O)(=O)c2ccc3c(c2)B(O)OC3)[C@]2(C)[C@H](C)CC[C@]3(CCC(=O)[C@H]32)[C@@H](C)[C@@H]1O [Compound 64, (3aR,4R,5R,7S,8S,9R,9aS,12R)-8-hydroxy-4,7,9,12-tetramethyl-3-oxo-7-vinyldecahydro-4,9a-propanocyclopenta[8]annulen-5-yl 2-((1-hydroxy-1,3-dihydrobenzo[c][1,2]oxaborol-6-yl)sulfonyl)acetate]
MIC [1]: < 0.25 mg/L | MIC [2, 3]: 0.5 to 2 mg/L (≈ 0.895 to 3.58 µM)

Compound: C=C[C@]1(C)C[C@@H](OC(=O)COc2cc(F)c3c(c2)COB3O)[C@]2(C)[C@H](C)CC[C@]3(CCC(=O)[C@H]32)[C@@H](C)[C@@H]1O [Compound 33, (3aR,4R,5R,7S,8S,9R,9aS,12R)-8-hydroxy-4,7,9,12-tetramethyl-3-oxo-7-vinyldecahydro-4,9a-propanocyclopenta[8]annulen-5-yl 2-((7-fluoro-1-hydroxy-1,3-dihydrobenzo[c][1,2]oxaborol-5-yl)oxy)acetate]
MIC [1]: < 0.25 mg/L | MIC [2, 3]: 0.5 to 2 mg/L (≈ 0.946 to 3.78 µM)

Compound: C=C[C@]1(C)C[C@@H](OC(=O)C[S@@+]([O-])c2ccc3c(c2F)B(O)OC3)[C@]2(C)[C@H](C)CC[C@]3(CCC(=O)[C@H]32)[C@@H](C)[C@@H]1O [Compound 67, (3aR,4R,5R,7S,8S,9R,9aS,12R)-8-hydroxy-4,7,9,12-tetramethyl-3-oxo-7-vinyldecahydro-4,9a-propanocyclopenta[8]annulen-5-yl 2-((R)-(7-fluoro-1-hydroxy-1,3-dihydrobenzo[c][1,2]oxaborol-6-yl)sulfinyl)acetate]
MIC [1]: < 0.25 mg/L | MIC [2, 3]: 0.5 to 2 mg/L (≈ 0.892 to 3.57 µM)

Compound: C=C[C@]1(C)C[C@@H](OC(=O)CNc2ccc3c(c2F)B(O)OC3)[C@]2(C)[C@H](C)CC[C@]3(CCC(=O)[C@H]32)[C@@H](C)[C@@H]1O [Compound 54, (3aR,4R,5R,7S,8S,9R,9aS,12R)-8-hydroxy-4,7,9,12-tetramethyl-3-oxo-7-vinyldecahydro-4,9a-propanocyclopenta[8]annulen-5-yl (7-fluoro-1-hydroxy-1,3-dihydrobenzo[c][1,2]oxaborol-6-yl)glycinate]
MIC [1]: < 0.25 mg/L | MIC [2, 3]: 0.5 to 2 mg/L (≈ 0.948 to 3.79 µM)

Compound: C=C[C@]1(C)C[C@@H](OC(=O)CSc2ccc3c(c2)B(O)OC3)[C@]2(C)[C@H](C)CC[C@]3(CCC(=O)[C@H]32)[C@@H](C)[C@@H]1O [Compound 61, (3aR,4R,5R,7S,8S,9R,9aS,12R)-8-hydroxy-4,7,9,12-tetramethyl-3-oxo-7-vinyldecahydro-4,9a-propanocyclopenta[8]annulen-5-yl 2-((1-hydroxy-1,3-dihydrobenzo[c][1,2]oxaborol-6-yl)thio)acetate]
MIC [1]: < 0.25 mg/L | MIC [2, 3]: < 0.25 mg/L
